Reference: patent US20260210939A1, “MODIFIED OLFACTORY RECEPTORS” (GIVAUDAN SA, priority 2022, published 2026)
Marks after values point to notes of the source that are not given here.

Columns and labels:
Format in all cases: cell-based
[1] = target: T1, OR1N2 (Homo sapiens, UniProt Q8NGR9, T287M/V230G/W23R); test: CRE-luciferase assay, HEK293T cells expressing OR1N2 (wild-type / modified C-terminus)
T1 construct: Improved functional expression of modified OR-genes containing the truncated, optimized C-terminus; expressed in transfected cells; host or cells: HEK293T stably expressing human RTP1S(V227I) and RTP2(L220R)
T1 sequence (Q8NGR9 with tags, fused parts or gaps W23R/V230G/T287M): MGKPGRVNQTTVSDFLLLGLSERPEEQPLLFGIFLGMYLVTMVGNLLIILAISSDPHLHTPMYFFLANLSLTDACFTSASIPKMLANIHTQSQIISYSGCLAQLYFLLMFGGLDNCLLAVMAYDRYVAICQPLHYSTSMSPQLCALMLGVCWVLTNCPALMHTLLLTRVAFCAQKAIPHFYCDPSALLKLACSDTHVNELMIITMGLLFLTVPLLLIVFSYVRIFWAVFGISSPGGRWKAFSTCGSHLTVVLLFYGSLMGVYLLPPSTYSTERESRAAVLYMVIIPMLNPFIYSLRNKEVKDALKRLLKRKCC

[2] = target: T2, OR5A1 (Homo sapiens, UniProt Q8NGJ0, I300V); test: CRE-luciferase assay, HEK293T cells expressing OR5A1 (wild-type / modified C-terminus)
T2 construct: Improved functional expression of modified OR-genes containing the truncated, optimized C-terminus; expressed in transfected cells; host or cells: HEK293T stably expressing human RTP1S(V227I) and RTP2(L220R)
T2 sequence (Q8NGJ0 with tags, fused parts or gaps I300V): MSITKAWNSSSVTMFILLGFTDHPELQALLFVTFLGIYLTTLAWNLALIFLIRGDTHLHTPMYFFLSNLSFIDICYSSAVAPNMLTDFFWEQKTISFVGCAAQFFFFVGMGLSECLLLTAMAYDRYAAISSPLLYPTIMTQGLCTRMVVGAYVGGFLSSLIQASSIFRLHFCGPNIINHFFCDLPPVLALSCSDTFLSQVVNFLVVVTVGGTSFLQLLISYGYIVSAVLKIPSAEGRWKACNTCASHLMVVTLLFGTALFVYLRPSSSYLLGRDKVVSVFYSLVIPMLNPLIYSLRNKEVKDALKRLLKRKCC

[3] = target: T3, OR10H5 (Homo sapiens, UniProt Q8NGA6); test: CRE-luciferase assay, HEK293T cells expressing OR10H5 (wild-type / modified C-terminus)
T3 construct: Improved functional expression of modified OR-genes containing the truncated, optimized C-terminus; expressed in transfected cells; host or cells: HEK293T stably expressing human RTP1S(V227I) and RTP2(L220R)
T3 sequence (Q8NGA6 with tags, fused parts or gaps): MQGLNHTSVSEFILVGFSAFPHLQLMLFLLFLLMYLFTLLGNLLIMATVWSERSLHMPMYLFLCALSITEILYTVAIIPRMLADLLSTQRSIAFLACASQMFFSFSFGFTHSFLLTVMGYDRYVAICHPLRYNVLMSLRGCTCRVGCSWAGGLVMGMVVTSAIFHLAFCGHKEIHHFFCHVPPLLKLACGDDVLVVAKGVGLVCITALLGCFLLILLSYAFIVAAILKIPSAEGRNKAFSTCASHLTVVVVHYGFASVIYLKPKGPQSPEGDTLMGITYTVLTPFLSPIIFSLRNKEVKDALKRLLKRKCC
From the text: All tested receptors of Table 1 gave improved functional expression when the wild-type C-terminal domain was replaced with SEQ ID NO: 86. This functional expression was further improved when SEQ ID NO:86 was replaced with SEQ ID NO: 221 as shown for OR7C1 in Table 8 and for OR5B12 in Table 9. This additive improvement was further tested with OR10H5 (Table 18) and OR7A17 (Table 19). […] The full DNA sequences encoding the modified receptors are SEQ ID NO: 684 for OR10H5 and SEQ ID NO: 611 for OR7A17.

[4] = target: T4, OR10A3 (Homo sapiens, UniProt P58181); test: Dose-response test of single lactones on OR10A3 (luciferase)
T4 construct: Class II OR library members with modified C-terminal domains; expressed in transfected cells
T4 sequence (P58181 with tags, fused parts or gaps): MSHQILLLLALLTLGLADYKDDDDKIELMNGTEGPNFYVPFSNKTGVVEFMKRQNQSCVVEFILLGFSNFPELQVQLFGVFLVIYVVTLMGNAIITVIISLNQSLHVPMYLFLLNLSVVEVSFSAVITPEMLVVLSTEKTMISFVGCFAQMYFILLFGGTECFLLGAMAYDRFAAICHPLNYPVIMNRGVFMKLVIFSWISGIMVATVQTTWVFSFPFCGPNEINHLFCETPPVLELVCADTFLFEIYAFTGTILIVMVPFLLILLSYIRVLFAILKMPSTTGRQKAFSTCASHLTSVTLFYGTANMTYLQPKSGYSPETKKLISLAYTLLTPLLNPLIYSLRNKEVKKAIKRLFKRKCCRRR
Experimental: (§1) In a subsequent de-convultion experiment, the single ingredients were tested in a dose-response test on all the identified OR. […] Thus, OR2AP1 and OR2J2 are particularly strongly activated by the long-chain dodecalactone gamma, while OR10A3 is very sensitive to several longer chain lactones. […] Among the five OR, OR10A3 is the most sensitive.

[5] = target: T5, OR10A6(A117V, V140G, L287P) (Homo sapiens, UniProt Q8NH74, A117V/L287P/V140G); test: Dose-response test of single lactones on OR10A6(A117V, V140G, L287P)
T5 construct: expressed in transfected cells; transient transfection of pcDNA3.1(+) OR plasmid
T5 sequence (Q8NH74 with tags, fused parts or gaps A117V/V140G/L287P limits assumed): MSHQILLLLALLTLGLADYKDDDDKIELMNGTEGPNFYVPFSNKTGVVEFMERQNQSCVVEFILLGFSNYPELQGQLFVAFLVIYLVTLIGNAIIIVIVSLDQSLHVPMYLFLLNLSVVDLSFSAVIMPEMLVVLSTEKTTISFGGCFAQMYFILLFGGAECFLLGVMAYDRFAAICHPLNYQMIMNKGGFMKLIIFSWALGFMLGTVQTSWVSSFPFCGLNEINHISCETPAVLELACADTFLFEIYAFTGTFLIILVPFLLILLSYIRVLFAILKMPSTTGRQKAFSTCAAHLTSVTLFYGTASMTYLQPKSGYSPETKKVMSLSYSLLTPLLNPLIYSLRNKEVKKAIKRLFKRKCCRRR
Experimental: as §1

[6] = target: T6, OR10J1(M51I, I92M) (Homo sapiens, UniProt P30954, I103M/M62I); test: Dose-response test of single lactones on OR10J1(M51I, I92M)
T6 construct: expressed in transfected cells; transient transfection of pcDNA3.1(+) OR plasmid
T6 sequence (P30954 with tags, fused parts or gaps M62I/I103M): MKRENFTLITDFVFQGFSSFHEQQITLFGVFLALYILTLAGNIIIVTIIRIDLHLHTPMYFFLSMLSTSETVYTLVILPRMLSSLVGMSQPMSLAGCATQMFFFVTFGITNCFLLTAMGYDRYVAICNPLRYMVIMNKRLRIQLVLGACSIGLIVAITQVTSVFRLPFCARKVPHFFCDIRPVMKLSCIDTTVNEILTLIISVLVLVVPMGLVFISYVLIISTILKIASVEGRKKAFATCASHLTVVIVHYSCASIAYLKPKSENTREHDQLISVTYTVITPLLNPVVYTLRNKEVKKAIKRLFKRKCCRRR
Experimental: as §1

[7] = target: T7, OR2J2 (Homo sapiens, UniProt O76002, A146V/A218T/A302I/G300K/H297E/H74Y); test: Dose-response test of single lactones on OR2J2
T7 construct: expressed in transfected cells; transient transfection of pcDNA3.1(+) OR plasmid
T7 sequence (O76002 with tags, fused parts or gaps H74Y/A146V/A218T/H297E/G300K/A302I limits assumed): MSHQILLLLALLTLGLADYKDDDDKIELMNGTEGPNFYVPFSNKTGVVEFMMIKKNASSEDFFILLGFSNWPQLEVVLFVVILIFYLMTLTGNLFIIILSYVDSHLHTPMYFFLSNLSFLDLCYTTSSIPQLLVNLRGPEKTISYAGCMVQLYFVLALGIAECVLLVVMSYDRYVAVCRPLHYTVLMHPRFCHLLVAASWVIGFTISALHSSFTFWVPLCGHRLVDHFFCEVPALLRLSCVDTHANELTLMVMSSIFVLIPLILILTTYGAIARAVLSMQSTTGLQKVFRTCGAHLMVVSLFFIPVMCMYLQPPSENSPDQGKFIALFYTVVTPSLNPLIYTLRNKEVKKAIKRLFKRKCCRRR
Experimental: as §1

[8] = target: T8, OR2AP1 (Homo sapiens, UniProt Q8NGE2); test: Dose-response test of single lactones on OR2AP1
T8 construct: expressed in transfected cells; transient transfection of pcDNA3.1(+) OR plasmid
T8 sequence (Q8NGE2 with tags, fused parts or gaps limits assumed): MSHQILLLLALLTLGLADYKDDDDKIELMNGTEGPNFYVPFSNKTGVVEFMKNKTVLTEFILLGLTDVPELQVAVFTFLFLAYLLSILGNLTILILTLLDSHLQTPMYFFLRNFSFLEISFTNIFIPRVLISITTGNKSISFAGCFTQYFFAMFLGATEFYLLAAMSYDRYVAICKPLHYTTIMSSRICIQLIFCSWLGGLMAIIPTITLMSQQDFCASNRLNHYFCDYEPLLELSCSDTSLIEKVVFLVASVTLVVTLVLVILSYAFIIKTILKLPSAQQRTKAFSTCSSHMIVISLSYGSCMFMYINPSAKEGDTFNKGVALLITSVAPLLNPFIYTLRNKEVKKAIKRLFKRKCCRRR
Experimental: as §1

[9] = target: T9, OR56A4 (Homo sapiens, UniProt Q8NGH8, T299N); test: cell-based; details: for activation of the wild-type: wild-type OR56A4
T9 construct: Improved functional expression of modified OR-genes containing the truncated, optimized C-terminus; expressed in transfected cells; host or cells: HEK293T stably expressing human RTP1S(V227I) and RTP2(L220R)
T9 sequence (Q8NGH8 with tags, fused parts or gaps T299N): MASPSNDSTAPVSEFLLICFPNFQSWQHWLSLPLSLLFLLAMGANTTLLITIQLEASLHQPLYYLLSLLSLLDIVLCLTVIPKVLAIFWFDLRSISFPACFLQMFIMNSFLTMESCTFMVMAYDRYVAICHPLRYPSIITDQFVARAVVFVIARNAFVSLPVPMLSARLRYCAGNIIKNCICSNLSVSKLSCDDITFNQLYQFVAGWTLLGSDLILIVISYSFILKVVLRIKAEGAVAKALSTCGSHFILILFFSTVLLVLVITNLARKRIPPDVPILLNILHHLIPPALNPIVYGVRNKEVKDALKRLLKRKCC
Experimental: Activation of OR56A4 by acids of different chain length was further tested. […] Replacing the wild-type with the C-terminal sequence of the functional OR51E1 did reduce activity. However, using the optimized sequence form Examples 1-5 led to a strong signal and much lower detection threshold upon addition of all three acids.
These two improvements were further combined and the combination was tested on OR52A5 and two further class I receptors. […] In the case of OR52A4, 4-ethyloctanoic acid, which is detected at low concentrations by the human nose, is detected with a high luciferase response already at 0.19 μM by the receptor with the C-terminal modification showing very sensitive detection of this carboxylic acid by the modified class I receptor.

Structure (SMILES) | EC10, concentration for 10-fold OR activation [4] | EC2 (concentration for 2-fold luciferase induction) [5] | EC2 (concentration for 2-fold luciferase induction) [6] | EC2 (concentration for 2-fold luciferase induction) [7] | EC2 (concentration for 2-fold luciferase induction) [8] | also measured
O=C1CCCCCCCC=CCCCCCCO1 [Ambrettolide] | – | – | – | – | – | Comments on efficacy [1]: 1.5; Detection threshold; concentration for 2-fold induction ([1]; changed C-term. SEQ ID NO: 86): 0.26 µM; Fold-improvement potency ([1]; changed C-term. vs wild-type): 1.5; Fold-improvement threshold ([1]; changed C-term. vs wild-type): 5.2; Detection threshold; concentration for 2-fold induction ([1]; wild-type): 1.33 µM
CC(=O)/C=C/C1=C(C)CCCC1(C)C [Beta-ionone] | – | – | – | – | – | Comments on efficacy [2]: 4-fold lower; Detection threshold; concentration for 2-fold induction ([2]; changed C-term. SEQ ID NO: 86): 3.2 µM; Fold-improvement potency ([2]; changed C-term. vs wild-type): 1.8; Fold-improvement threshold ([2]; changed C-term. vs wild-type): 5.9; Detection threshold; concentration for 2-fold induction ([2]; wild-type): 19.1 µM; EC50 ([2]; wild-type): 5.5 µM
Cc1ccc2c(c1)OCC(=O)CO2 [Calone] | – | – | – | – | – | Comments on efficacy [3]: 3-fold lower; Detection threshold; concentration for 2-fold induction ([3]; changed C-term. SEQ ID NO: 86): 24.3 µM; Fold-improvement threshold ([3]; changed C-term. vs wild-type): 2.5; Fold-improvement potency ([3]; changed C-term. vs wild-type, higher EC50 due to much higher efficacy of optimized C-terminus): 0.7 *; Detection threshold; concentration for 2-fold induction ([3]; wild-type): 60.1 µM
CCCCCC1CCCC(=O)O1 (stereo not shown) [Decalactone delta] | 2.10 μM | 5.31 µM | 31.73 µM | 98.89 µM | – | –
CCCCCCC1CCC(=O)O1 (stereo not shown) [Decalactone gamma] | 0.84 μM | 1.62 µM | 3.63 µM | 3.27 µM | 33.66 µM | –
CCCCCCCC1CCCC(=O)O1 (stereo not shown) [Dodecalactone delta] | 2.59 μM | 1.11 µM | 31.38 µM | 35.12 µM | 15.76 µM | –
CCCCCCCCC1CCC(=O)O1 (stereo not shown) [Dodecalactone gamma] | 0.85 μM | 0.48 µM | 5.31 µM | 1.41 µM | 1.31 µM | –
CC1=CCC(C(C)CC2CCCC2=O)CC1 (stereo not shown) [Nectaryl] | 2.32 μM | 1.12 µM | – | inactive | 19.72 µM | –
CCCCCC1CCC(=O)O1 (stereo not shown) [Nonalactone gamma] | 2.83 μM | 11.34 µM | 11.14 µM | 12.85 µM | – | –
CCCCC1CCC(=O)O1 (stereo not shown) [Octalactone gamma] | 26.93 μM | – | 101.73 µM | 65.20 µM | – | –
CCCCCCCC1CCC(=O)O1 (stereo not shown) [Undecalactone gamma] | 0.28 μM | 0.34 µM | 2.11 µM | 0.71 µM | 6.53 µM | –
CCCCCCCCCCC(=O)O [Undecanoic acid] | – | – | – | – | – | Fold-improvement potency ([9]; changed C-term. vs wild-type): 5.1; EC50 ([9]; wild-type): 114 µM; activation of the wild-type [9]: activated at high concentration
CCCCCCCCCC(=O)O [decanoic acid] | – | – | – | – | – | activation of the wild-type [9]: activated at high concentration
